{
  "source": "ChEMBL document CHEMBL1201861",
  "about": "“Genomics of Drug Sensitity in Cancer screening data, Wellcome Trust Sanger Institute”",
  "assay_in_all_cases": "cells",
  "key": {"[1]": {"tested_on": "GI-1", "assay_type": "functional, cell-based, Homo sapiens", "conditions": "Homo sapiens, GI-1", "description": "SANGER: Inhibition of human GI-1 cell growth in a cell viability assay."}, "[2]": {"tested_on": "NCI-H720", "assay_type": "functional, cell-based, Homo sapiens", "conditions": "Homo sapiens, NCI-H720", "description": "SANGER: Inhibition of human NCI-H720 cell growth in a cell viability assay."}, "[3]": {"tested_on": "LXF-289 cell line", "assay_type": "functional, cell-based", "conditions": "Homo sapiens", "description": "SANGER: Inhibition of human LXF-289 cell growth in a cell viability assay."}, "[4]": {"tested_on": "8-MG-BA", "assay_type": "functional, cell-based, Homo sapiens", "conditions": "Homo sapiens, 8-MG-BA", "description": "SANGER: Inhibition of human 8-MG-BA cell growth in a cell viability assay."}, "[5]": {"tested_on": "KP-N-YS", "assay_type": "functional, cell-based, Homo sapiens", "conditions": "Homo sapiens, KP-N-YS", "description": "SANGER: Inhibition of human KP-N-YS cell growth in a cell viability assay."}, "[6]": {"tested_on": "NCI-H1092", "assay_type": "functional, cell-based, Homo sapiens", "conditions": "Homo sapiens, NCI-H1092", "description": "SANGER: Inhibition of human NCI-H1092 cell growth in a cell viability assay."}, "[7]": {"tested_on": "SCC-15", "assay_type": "functional, cell-based, Homo sapiens", "conditions": "Homo sapiens, SCC-15", "description": "SANGER: Inhibition of human SCC-15 cell growth in a cell viability assay."}, "[8]": {"tested_on": "HCC2157", "assay_type": "functional, cell-based, Homo sapiens", "conditions": "Homo sapiens, HCC2157", "description": "SANGER: Inhibition of human HCC2157 cell growth in a cell viability assay."}, "[9]": {"tested_on": "SW 962", "assay_type": "functional, cell-based, Homo sapiens", "conditions": "Homo sapiens, SW 962", "description": "SANGER: Inhibition of human SW962 cell growth in a cell viability assay."}, "[10]": {"tested_on": "SK-PN-DW", "assay_type": "functional, cell-based, Homo sapiens", "conditions": "Homo sapiens, SK-PN-DW", "description": "SANGER: Inhibition of human SK-PN-DW cell growth in a cell viability assay."}, "[11]": {"tested_on": "TE-5", "assay_type": "functional, cell-based, Homo sapiens", "conditions": "Homo sapiens, TE-5", "description": "SANGER: Inhibition of human TE-5 cell growth in a cell viability assay."}, "[12]": {"tested_on": "SJSA-1", "assay_type": "functional, cell-based, Homo sapiens", "conditions": "Homo sapiens, SJSA-1", "description": "SANGER: Inhibition of human SJSA-1 cell growth in a cell viability assay."}, "[13]": {"tested_on": "EW-18", "assay_type": "functional, cell-based, Homo sapiens", "conditions": "Homo sapiens, EW-18; read-out: IC50", "description": "SANGER: Inhibition of human EW-18 cell growth in a cell viability assay."}, "[14]": {"tested_on": "HCC1187", "assay_type": "functional, cell-based, Homo sapiens", "conditions": "Homo sapiens, HCC1187", "description": "SANGER: Inhibition of human HCC1187 cell growth in a cell viability assay."}, "[15]": {"tested_on": "SNB-75", "assay_type": "functional, cell-based, Homo sapiens", "conditions": "Homo sapiens, SNB-75", "description": "SANGER: Inhibition of human SNB75 cell growth in a cell viability assay."}, "[16]": {"tested_on": "NCI-H226", "assay_type": "functional, cell-based, Homo sapiens", "conditions": "Homo sapiens, NCI-H226", "description": "SANGER: Inhibition of human NCI-H226 cell growth in a cell viability assay."}, "[17]": {"tested_on": "NCI-H1355", "assay_type": "functional, cell-based, Homo sapiens", "conditions": "Homo sapiens, NCI-H1355", "description": "SANGER: Inhibition of human NCI-H1355 cell growth in a cell viability assay."}, "[18]": {"tested_on": "SCH", "assay_type": "functional, cell-based, Homo sapiens", "conditions": "Homo sapiens, SCH", "description": "SANGER: Inhibition of human SCH cell growth in a cell viability assay."}, "[19]": {"tested_on": "LB1047-RCC", "assay_type": "functional, cell-based, Homo sapiens", "conditions": "Homo sapiens, LB1047-RCC", "description": "SANGER: Inhibition of human LB1047-RCC cell growth in a cell viability assay."}, "[20]": {"tested_on": "no-10", "assay_type": "functional, cell-based, Homo sapiens", "conditions": "Homo sapiens", "description": "SANGER: Inhibition of human no-10 cell growth in a cell viability assay."}, "[21]": {"tested_on": "MV4-11", "assay_type": "functional, cell-based, Homo sapiens, MV-4-11", "conditions": "Homo sapiens, MV4-11", "description": "SANGER: Inhibition of human MV-4-11 cell growth in a cell viability assay."}, "[22]": {"tested_on": "MHH-NB-11", "assay_type": "functional, cell-based, Homo sapiens", "conditions": "Homo sapiens, MHH-NB-11", "description": "SANGER: Inhibition of human MHH-NB-11 cell growth in a cell viability assay."}, "[23]": {"tested_on": "TE-9", "assay_type": "functional, cell-based, Homo sapiens", "conditions": "Homo sapiens, TE-9", "description": "SANGER: Inhibition of human TE-9 cell growth in a cell viability assay."}, "[24]": {"tested_on": "NCI-N87", "assay_type": "functional, cell-based", "conditions": "Homo sapiens", "description": "SANGER: Inhibition of human NCI-N87 cell growth in a cell viability assay."}, "[25]": {"tested_on": "HAL-01", "assay_type": "functional, cell-based, Homo sapiens", "conditions": "Homo sapiens, HAL-01", "description": "SANGER: Inhibition of human HAL-01 cell growth in a cell viability assay."}, "[26]": {"tested_on": "NCI-H526", "assay_type": "functional, cell-based, Homo sapiens", "conditions": "Homo sapiens, NCI-H526", "description": "SANGER: Inhibition of human NCI-H526 cell growth in a cell viability assay."}, "[27]": {"tested_on": "PSN1", "assay_type": "functional, cell-based, Homo sapiens", "conditions": "Homo sapiens, PSN1", "description": "SANGER: Inhibition of human PSN1 cell growth in a cell viability assay."}, "[28]": {"tested_on": "TGBC1TKB", "assay_type": "functional, cell-based, Homo sapiens", "conditions": "Homo sapiens, TGBC1TKB", "description": "SANGER: Inhibition of human TGBC1TKB cell growth in a cell viability assay."}, "[29]": {"tested_on": "GAK", "assay_type": "functional, cell-based, Homo sapiens", "conditions": "Homo sapiens, GAK", "description": "SANGER: Inhibition of human GAK cell growth in a cell viability assay."}, "[30]": {"tested_on": "MOLT-16", "assay_type": "functional, cell-based, Homo sapiens", "conditions": "Homo sapiens, MOLT-16", "description": "SANGER: Inhibition of human MOLT-16 cell growth in a cell viability assay."}, "[31]": {"tested_on": "BV-173", "assay_type": "functional, cell-based, Homo sapiens", "conditions": "Homo sapiens, BV-173", "description": "SANGER: Inhibition of human BV-173 cell growth in a cell viability assay."}, "[32]": {"tested_on": "U-87 MG", "assay_type": "functional, cell-based, Homo sapiens, U-87MG ATCC", "conditions": "Homo sapiens, U-87 MG", "description": "SANGER: Inhibition of human U-87-MG cell growth in a cell viability assay."}, "[33]": {"tested_on": "NEC8", "assay_type": "functional, cell-based, Homo sapiens", "conditions": "Homo sapiens, NEC8", "description": "SANGER: Inhibition of human NEC8 cell growth in a cell viability assay."}, "[34]": {"tested_on": "QIMR-WIL", "assay_type": "functional, cell-based, Homo sapiens", "conditions": "Homo sapiens, QIMR-WIL", "description": "SANGER: Inhibition of human QIMR-WIL cell growth in a cell viability assay."}, "[35]": {"tested_on": "ES5", "assay_type": "functional, cell-based, Homo sapiens", "conditions": "Homo sapiens, ES5", "description": "SANGER: Inhibition of human ES5 cell growth in a cell viability assay."}, "[36]": {"tested_on": "OCUB-M", "assay_type": "functional, cell-based", "conditions": "Homo sapiens", "description": "SANGER: Inhibition of human OCUB-M cell growth in a cell viability assay."}, "[37]": {"tested_on": "RH-1", "assay_type": "functional, cell-based, Homo sapiens", "conditions": "Homo sapiens, RH-1", "description": "SANGER: Inhibition of human RH-1 cell growth in a cell viability assay."}, "[38]": {"tested_on": "L-363", "assay_type": "functional, cell-based, Homo sapiens", "conditions": "Homo sapiens, L-363", "description": "SANGER: Inhibition of human L-363 cell growth in a cell viability assay."}, "[39]": {"tested_on": "OCI-AML2", "assay_type": "functional, cell-based, Homo sapiens", "conditions": "Homo sapiens, OCI-AML2", "description": "SANGER: Inhibition of human OCI-AML2 cell growth in a cell viability assay."}, "[40]": {"tested_on": "L-428", "assay_type": "functional, cell-based, Homo sapiens", "conditions": "Homo sapiens, L-428", "description": "SANGER: Inhibition of human L-428 cell growth in a cell viability assay."}, "[41]": {"tested_on": "GR-ST", "assay_type": "functional, cell-based, Homo sapiens", "conditions": "Homo sapiens, GR-ST", "description": "SANGER: Inhibition of human GR-ST cell growth in a cell viability assay."}, "[42]": {"tested_on": "CCRF-CEM", "assay_type": "functional, cell-based, Homo sapiens", "conditions": "Homo sapiens, CCRF-CEM", "description": "SANGER: Inhibition of human CCRF-CEM cell growth in a cell viability assay."}, "[43]": {"tested_on": "OVCAR-4", "assay_type": "functional, cell-based, Homo sapiens", "conditions": "Homo sapiens, OVCAR-4", "description": "SANGER: Inhibition of human OVCAR-4 cell growth in a cell viability assay."}, "[44]": {"tested_on": "RXF 393", "assay_type": "functional, cell-based, Homo sapiens", "conditions": "Homo sapiens, RXF 393", "description": "SANGER: Inhibition of human RXF393 cell growth in a cell viability assay."}, "[45]": {"tested_on": "NB6", "assay_type": "functional, cell-based, Homo sapiens", "conditions": "Homo sapiens, NB6", "description": "SANGER: Inhibition of human NB6 cell growth in a cell viability assay."}, "[46]": {"tested_on": "NCI-H1299", "assay_type": "functional, cell-based", "conditions": "Homo sapiens", "description": "SANGER: Inhibition of human NCI-H1299 cell growth in a cell viability assay."}, "[47]": {"tested_on": "NB5", "assay_type": "functional, cell-based, Homo sapiens", "conditions": "Homo sapiens, NB5", "description": "SANGER: Inhibition of human NB5 cell growth in a cell viability assay."}, "[48]": {"tested_on": "SK-NEP-1", "assay_type": "functional, cell-based, Homo sapiens", "conditions": "Homo sapiens, SK-NEP-1", "description": "SANGER: Inhibition of human SK-NEP-1 cell growth in a cell viability assay."}, "[49]": {"tested_on": "LB771-HNC", "assay_type": "functional, cell-based", "conditions": "Homo sapiens", "description": "SANGER: Inhibition of human LB771-HNC cell growth in a cell viability assay."}},
  "data": [
    {"compound": "C/C(=C\\c1csc(C)n1)[C@@H]1C[C@@H]2O[C@]2(C)CCC[C@H](C)[C@H](O)[C@@H](C)C(=O)C(C)(C)[C@@H](O)CC(=O)O1", "note": "[PATUPILONE]", "values": [
      {"measurement": "IC50", "setting": "[1]", "result": 2.43, "unit": "nM"},
      {"measurement": "IC50", "setting": "[2]", "result": "> 32", "unit": "nM"},
      {"measurement": "IC50", "setting": "[3]", "result": 0.227, "unit": "nM"},
      {"measurement": "IC50", "setting": "[4]", "result": 4.78, "unit": "nM"},
      {"measurement": "IC50", "setting": "[5]", "result": 3.93, "unit": "nM"},
      {"measurement": "IC50", "setting": "[6]", "result": "> 32", "unit": "nM"},
      {"measurement": "IC50", "setting": "[7]", "result": 5.98, "unit": "nM"},
      {"measurement": "IC50", "setting": "[8]", "result": 1.28, "unit": "nM"},
      {"measurement": "IC50", "setting": "[9]", "result": 1.04, "unit": "nM"},
      {"measurement": "IC50", "setting": "[10]", "result": 1.06, "unit": "nM"},
      {"measurement": "IC50", "setting": "[11]", "result": 3.04, "unit": "nM"},
      {"measurement": "IC50", "setting": "[12]", "result": 2.09, "unit": "nM"},
      {"measurement": "IC50", "setting": "[13]", "result": 2.63, "unit": "nM"},
      {"measurement": "IC50", "setting": "[14]", "result": 22.6, "unit": "nM"},
      {"measurement": "IC50", "setting": "[15]", "result": 3.01, "unit": "nM"},
      {"measurement": "IC50", "setting": "[16]", "result": "> 32", "unit": "nM"},
      {"measurement": "IC50", "setting": "[17]", "result": 0.915, "unit": "nM"},
      {"measurement": "IC50", "setting": "[18]", "result": "> 32", "unit": "nM"},
      {"measurement": "IC50", "setting": "[19]", "result": 2, "unit": "nM"},
      {"measurement": "IC50", "setting": "[20]", "result": 5.56, "unit": "nM"},
      {"measurement": "IC50", "setting": "[21]", "result": 1.7, "unit": "nM"},
      {"measurement": "IC50", "setting": "[22]", "result": 15.2, "unit": "nM"},
      {"measurement": "IC50", "setting": "[23]", "result": 1.57, "unit": "nM"},
      {"measurement": "IC50", "setting": "[24]", "result": 30.3, "unit": "nM"},
      {"measurement": "IC50", "setting": "[25]", "result": 5.02, "unit": "nM"},
      {"measurement": "IC50", "setting": "[26]", "result": 7.24, "unit": "nM"},
      {"measurement": "IC50", "setting": "[27]", "result": 0.173, "unit": "nM"},
      {"measurement": "IC50", "setting": "[28]", "result": "> 32", "unit": "nM"},
      {"measurement": "IC50", "setting": "[29]", "result": 13.5, "unit": "nM"},
      {"measurement": "IC50", "setting": "[30]", "result": 3.41, "unit": "nM"},
      {"measurement": "IC50", "setting": "[31]", "result": "> 32", "unit": "nM"},
      {"measurement": "IC50", "setting": "[32]", "result": 21.8, "unit": "nM"},
      {"measurement": "IC50", "setting": "[33]", "result": 3.53, "unit": "nM"},
      {"measurement": "IC50", "setting": "[34]", "result": 1.19, "unit": "nM"},
      {"measurement": "IC50", "setting": "[35]", "result": "> 32", "unit": "nM"},
      {"measurement": "IC50", "setting": "[36]", "result": 1.03, "unit": "nM"},
      {"measurement": "IC50", "setting": "[37]", "result": 0.997, "unit": "nM"},
      {"measurement": "IC50", "setting": "[38]", "result": 5.88, "unit": "nM"},
      {"measurement": "IC50", "setting": "[39]", "result": 3.07, "unit": "nM"},
      {"measurement": "IC50", "setting": "[40]", "result": "> 32", "unit": "nM"},
      {"measurement": "IC50", "setting": "[41]", "result": 3.91, "unit": "nM"},
      {"measurement": "IC50", "setting": "[42]", "result": 2.94, "unit": "nM"},
      {"measurement": "IC50", "setting": "[43]", "result": 1.61, "unit": "nM"},
      {"measurement": "IC50", "setting": "[44]", "result": 3.41, "unit": "nM"},
      {"measurement": "IC50", "setting": "[45]", "result": 17.5, "unit": "nM"},
      {"measurement": "IC50", "setting": "[46]", "result": 0.88, "unit": "nM"},
      {"measurement": "IC50", "setting": "[47]", "result": 10.6, "unit": "nM"},
      {"measurement": "IC50", "setting": "[48]", "result": 10, "unit": "nM"},
      {"measurement": "IC50", "setting": "[49]", "result": 8.46, "unit": "nM"}
    ]}
  ]
}
